# Laboratory results from patent US11541022B2, “Methods and compositions for the treatment of neurological diseases and syndromes of aging” (priority 2018, dated 2023).
# What was measured:
# [1] = cited from earlier work; for half-life: stated in words
# [2] = mice, intraperitoneal injection; cited from earlier work
# [3] = test system: epigenetic age (methylation patterns of gene markers from buccal cells); assay: Epigenetic age tests in AR (Age Regression) trials of the stem cell regime; format: in vivo, human
# Description: Test subject's epigenetic age results are summarized below in the table of AR (Age Regression) trials: The second column of Table 1 reports the difference between epigenetic and chronological age; the third column reports the weeks of treatment, wherein there was at least one fusion cycle per week and generally two […] cycles initially, decreasing to the end of this period to one treatment every week or two; the fourth column reports the total elapsed time from baseline; the fifth column reports the regimes used; and the sixth column reports the nutritional cocktails. Several companies are presently offering epigenetic tests that purport to give epigenetic age that generally closely correlates with chronological age. The subject had taken a test offered by Osiris Green two months prior beginning treatment. […] This was in spite of their prior use of C60 for several years outside of the regime. […] This was far outside the expected range. […] It appears that using a demethylase promoter during stem cell stimulation produces a far more rapid decline in epigenetic age, as removing aberrant methylation is easiest during cell division. The epigenetic testing labs used—Osirus Green, TrueMe, EpiAging and Epimorphy—all used different sets of genes, yet results were within a few years for samples taken at the same time. […] It was initially hypothesized that any negative impact would be minimal if used only with mitochondrial switches, but the telomeres of rapidly dividing TACs were likely also lengthened, and this blocked TAC senescence and replacement. Since TACs divide frequently, they also experience rapid epigenetic aging, thus somatic cells derived from TACs with telomeres extended by an agonist reach higher epigenetic age that would ordinarily be possible.
# [4] = Trial of L-Dopa with C60 and mitochondrial fusion; format: in vivo, human; conditions: one subject
# Protocol: In some embodiments, the amino acid L-Dopa is administered with a mitochondrial fusion promoter to stimulate the proliferation of SCs. In some embodiments it is used with C60 and/or with a demethylase promoter. In some embodiments it is used with glutamine. […] Treatment with L-Dopa may be combined with 5-HTP and/or SRIs for a full spectrum effect.
smiles,measurement,setting,value
C[S+]([O-])CCCCN=C=S (stereo not shown) [sulforaphane],time to peak in the bloodstream,[1]; in vivo,≥ 15 min
same,half-life,[1],about an hour
same,duration of activity,[2],approximately sixty minutes
same,time to maximum activity,[2],15 min
Oc1ccc(C=Cc2cc(O)cc(O)c2)cc1 [resveratrol],epigenetic age below chronological age,"[3]; 300 mg of resveratrol one hour before C60, one treatment per week for 8 weeks",14.6 years
"N[C@@H](Cc1ccc(O)c(O)c1)C(=O)O [L-Dopa, Levodopa]",tremors,[4],eliminated tremors
"O=C1c2c(O)cc(O)cc2O[C@H](c2cc(O)c(O)c(O)c2)[C@H]1O [dihydromyricetin, Dihydromyricetin]",time to elimination from the body,[1]; Liu et al. 2019,about 12 hours
"CC(C)(O)[C@@H]1CC[C@](C)([C@H]2[C@@H](O)C[C@@]3(C)[C@@H]4C[C@H](O)[C@H]5C(C)(C)[C@@H](O)CC[C@@]56C[C@@]46CC[C@]23C)O1 [cycloasragenol, cycloastragenol]",effect on epigenetic age,[3]; telomere agonist every fourth treatment,did not show the same negative effects
same,effect on epigenetic age,[3]; telomere agonist with every C60/mitochondrial switches treatment,rapidly increase epigenetic age
CCCCCCCCCCCCCCCCCC(=O)O [stearic acid],half-life,[1],ten to twelve hours
